The nature of data set [1]: Echocardiography after transverse aortic banding (TAB) or sham surgery. The class given is in vivo, mice. Conditions: for EF / FS / IVSd / IVSs / LVIDd / LVIDs / LVPWd / LVPWs / Heart Rate: i.p. treatment twice a week, echocardiography, mean; for Heart Rate: in bpm (unit assumed). On the procedure: For echocardiography, mice were anesthetized with pentobarbital (40 mg/kg body weight, i.p.) and then measurements were taken with ultrasound equipment (ATL Philips IE33, Ultrasound Machine System, CA, U.S.A.) using a 15-MHz probe. The left ventricular posterior wall thickness (LVPW), inter-ventricular septum thickness (IVS), and left ventricular lumen diameter at both end-systolic and end-diastolic phases were measured digitally on the M-mode tracings and averaged for three cardiac cycles. Fractional shortening (FS) and ejection faction (EF) were then calculated.
Male mice (weighing 25-30 g) were anesthetized by intraperitoneal injection of chloral hydrate (125 mg/kg). The TAB procedure was performed according to the description by Hu et al. (Hu P, Zhang D, Swenson L, Chakrabarti G, Abel E D, and Litwin S E (2003) Minimally invasive aortic banding in mice: effects of altered cardiomyocyte insulin signaling during pressure overload. Am J Physiol Heart Circ Physiol 285:H1261-H1269). Echocardiography was performed at week 10 after TAB or sham surgery.
The experimental timeline for TAB and ST32da therapy was as follows. Mice were pre or post treated with intraperitoneal ST32da (0.2 mg/kg) twice a week from 4th to 10th week after TAB procedure. Echocardiographic measurements were performed on mice before (week 4) and after (week 10) ST32da, ST32db, ST32c therapy in both the procedure group and the nonprocedure group. Parameters, including interventricular septum thickness at diastole (IVSd) and systole (IVSs), left ventricular internal diameter at diastole (LVIDd) and systole (LVIDs), left ventricular posterior wall thickness at diastole (LVPWd) and systole (LVPWs), fractional shortening of left ventricle, ejection fraction of left ventricle (EF), and heart rate (HR) are shown.

Data set [2] is described as follows: Animal model for obesity (45% high fat diet). The class given is in vivo. Conditions: HFD-fed WT mice.
The test system of another data set is ATF3. Put plainly: ATF3 promoter luciferase platform (pGL4-ATF3 stable clones) for screening ATF3 inducers. The class given is cell-based. The conditions noted are these: pGL4-ATF3 transfected 3T3-L1 preadipocytes and H9C2 cardiomyocytes. From the text: The disclosure is directed to chromenone derivatives used as an ATF3 inducer compound and for treating and/or preventing obesity and obesity-related disorders. The compounds of this disclosure are obtained by: (1) transfecting a special DNA sequence of ATF3 (pGL4-ATF3) into 3T3-L1 preadipocytes and H9C2 cardiomyocytes; (2) using the stable clone as a platform for screening of drug for anti-obesity, anti-atherosclerosis, anti-cardiovascular disease and promotion of white-to-brown adipocyte transdifferentiation; and (3) using the platform for special drug screening. […] The invention further finds that these compounds have an inhibitory effect on obesity and obesity-induced diabetes and a facilitatory effect on white-to-brown adipocyte transdifferentiation, thereby increasing the body energy expenditure and suppressing diabetes. In addition, these compounds also can inhibit high blood pressure or hypoxia induced cardiomyopathy to increase heart function.
The invention uses a platform of ATF3 promoter luciferase to select AT3 inducer and confirms that these selected compounds can be used as anti-obesity, anti-diabetes and anti-heart disease drugs in view of the fact that these compounds have an inhibitory effect on obesity and obesity-induced diabetes and inhibition of high blood pressure or hypoxia induced cardiomyopathy, thereby increasing heart function. The platform of ATF3 promoter luciferase is created by transfecting a DNA sequence of ATF3 (pGL4-ATF3) into 3T3-L1 preadipocytes and H9C2 cardiomyocytes and using the stable clones as a platform for screening of drugs for anti-obesity, anti-atherosclerosis, anti-cardiovascular disease and promotion of white-to-brown adipocyte transdifferentiation. […]

Data set [3] in a line: GTT and ITT assays in HFD-fed mice. Conditions: HFD-fed WT mice, 0.5 mg/kg/day or 1 mg/kg/day. It counts as in vivo. On the procedure:
Mice were fasted overnight for 16 h before receiving an intraperitoneal administration of 1.5 g glucose/kg body weight in saline. Blood samples were collected from the tail vein by tail snipping at 0, 15, 30, 45, 60, and 120 min, and plasma glucose and insulin levels were determined from those samples. An ITT was performed on mice after 1 h of fasting. Animals were intraperitoneally injected with 1.0 U insulin/kg body weight in saline. Blood samples were drawn from the tail vein at 0, 15, 30, 45 and 60 min for the measurement of plasma glucose levels. Plasma glucose levels in blood samples collected from tail veins were determined using a commercially available glucose meter (OneTouch Ultra blood glucose meter, LifeScan, Milpitas, Calif.). After the isolation of plasma from blood samples, insulin levels were determined by ELISA (Mercodia, Winston Salem, N.C.). To evaluate the degree of insulin resistance, values were calculated using the following homeostatic model of assessment of insulin resistance (HOMA-IR) formula: fasting glucose (in mg/dl)×fasting insulin (in mU/ml)/405.)

Setting [4] is: TAB mice, week 4 to 10 after TAB.

As to `CC1Cc2c(c3ccc4ccccc4c3oc2=O)O1` (stereo not shown) [ST32c, 2-methyl-1H-benzo[h]furo[3,2-c]chromen-11(2H)-one], in data set [1] (TAB mice), the “TAB-induced LV dilatation” value was “attenuated TAB-induced LV dilatation” and the contractility entry is given as “increased contractility”. In data set [1] (setting [4]), this compound gave an EF of 86.500%, an FS of 54.500%, an IVSd of 1.350 mm and an IVSs of 1.950 mm. For the same compound, in data set [1] (setting [4]), the LVIDd is listed as 3.350 mm, the LVIDs came to 1.700 mm, the LVPWd was 1.350 mm and the LVPWs was found to be 2.000 mm. Further, the “Heart Rate” value in data set [1] (setting [4]) worked out at 340.000. Besides, in data set [1] (sham mice, week 4 to 10), the EF stood at 79.000%, the FS is on record as 41.333%, the IVSd is on record as 0.800 mm and the IVSs was determined as 1.367 mm. In data set [1] (sham mice, week 4 to 10), this compound displayed an LVIDd of 3.733 mm, an LVIDs of 2.200 mm, an LVPWd of 0.800 mm and an LVPWs of 1.333 mm. Besides, in data set [1] (sham mice, week 4 to 10), the “Heart Rate” value came out at 318.667. For the same compound, the “HFD-induced obesity (body weight)” value in data set [2] (0.5 mg/kg/day, FIG. 7) is given as “could prevent HFD-induced obesity”. Besides, the “ATF3 expression (screening for ATF3 inducers)” value (from here on “ATF3 expression”) in the data set on ATF3 is recorded as “induction of the above-mentioned ATF3 expression”.
In the case of `C[C@@H]1Oc2c(c(=O)oc3c2ccc2ccccc23)[C@H]1C` [ST32da, (1R,2S)-1,2-dimethyl-1H-benzo[h]furo[3,2-c]chromen-11(2H)-one], in data set [1] (TAB mice), the “TAB-induced LV dilatation” value is reported as “attenuated TAB-induced LV dilatation” and the contractility result is on record as “increased contractility”. Also, in data set [1] (setting [4]), the EF turned out to be 75.000%, the FS turned out to be 41.000%, the IVSd is recorded as 1.200 mm and the IVSs was 1.600 mm. Moreover, in data set [1] (setting [4]), the LVIDd amounted to 3.600 mm, the LVIDs was found to be 2.500 mm, the LVPWd was determined as 1.000 mm and the LVPWs is on record as 1.600 mm. Besides, the “Heart Rate” value in data set [1] (setting [4]) was found to be 294.000. In data set [1] (sham mice, week 4 to 10), this compound came in with an EF of 81.000%, an FS of 44.000%, an IVSd of 0.767 mm and an IVSs of 1.400 mm. Moreover, in data set [1] (sham mice, week 4 to 10), the LVIDd is recorded as 3.833 mm, the LVIDs worked out at 2.133 mm, the LVPWd is listed as 0.800 mm and the LVPWs was found to be 1.400 mm. Besides, the “Heart Rate” value in data set [1] (sham mice, week 4 to 10) was found to be 303.667. The “HFD-induced obesity (percent of initial body weight)” value in data set [2] (0.5 mg/kg/day or 1 mg/kg/day i.p., FIG. 5A left) is “could prevent HFD-induced obesity”. The “adipose depot mass including iWAT, eWAT, mWAT, rWAT and BAT” value in data set [2] (0.5 mg/kg/day or 1 mg/kg/day i.p., FIG. 5B) is on record as “decreased adipose depot mass”. Moreover, the liver weights result in data set [2] (0.5 mg/kg/day or 1 mg/kg/day i.p., FIG. 5C) was “did not affect liver weights”. In addition, the “glucose tolerance (glucose tolerance test)” value in data set [3] (FIG. 5D) is on record as “enhanced glucose tolerance”. Besides, the “insulin sensitivity (insulin tolerance test)” value in data set [3] (FIG. 5E) is “improved inulin sensitivity”. The “ATF3 expression” value in the data set on ATF3 is reported as “induction of the above-mentioned ATF3 expression”.
As for `C[C@@H]1c2c(c3ccc4ccccc4c3oc2=O)O[C@@H]1C` [ST32db, (1R,2R)-1,2-dimethyl-1H-benzo[h]furo[3,2-c]chromen-11(2H)-one], in data set [1] (TAB mice), the “TAB-induced LV dilatation” value is “attenuated TAB-induced LV dilatation” and the contractility result was “increased contractility”. Further, in data set [1] (setting [4]), the EF was 84.750%, the FS turned out to be 48.250%, the IVSd is 1.050 mm and the IVSs is 1.750 mm. In addition, in data set [1] (setting [4]), the LVIDd is reported as 3.600 mm, the LVIDs came out at 1.850 mm, the LVPWd turned out to be 1.050 mm and the LVPWs worked out at 1.700 mm. Further, the “Heart Rate” value in data set [1] (setting [4]) turned out to be 301.000. In addition, in data set [1] (sham mice, week 4 to 10), the EF stood at 81.667%, the FS was determined as 44.667%, the IVSd amounted to 0.800 mm and the IVSs was found to be 1.533 mm. For the same compound, in data set [1] (sham mice, week 4 to 10), the LVIDd stood at 4.067 mm, the LVIDs amounted to 2.233 mm, the LVPWd is 0.800 mm and the LVPWs is recorded as 1.433 mm. Moreover, the “Heart Rate” value in data set [1] (sham mice, week 4 to 10) amounted to 318.500. The “HFD-induced obesity (body weight)” value in data set [2] (1 or 10 mg/kg/day, FIG. 6A) was “could prevent HFD-induced obesity”. Moreover, in the data set with ATF3, the “ATF3 expression” value is “induction of the above-mentioned ATF3 expression”.

These data come from patent US11365200B2, “ATF3 induction compounds” (TAIPEI MEDICAL UNIVERSITY, priority 2017, dated 2022).
